Source: the NIST ThermoML archive (doi:10.1016/j.fluid.2008.02.013)
Several values for one entry are separate records, joined by “and”; a condition that tells them apart may be missing. Identical values can stand only once. ± gives the expanded uncertainty stated by the source.

Tests used:
[1] = Crystal; DTA
[2] = Molar enthalpy of transition or fusion; conditions: Crystal; DSC

For `C=C(C)[C@@H]1CC[C@]2(CO)CC[C@]3(C)[C@H](CC[C@@H]4[C@@]5(C)CC[C@H](O)C(C)(C)[C@@H]5CC[C@]43C)[C@@H]12` [betulin], the Normal melting temperature [1] was 257.5 ± 2 °C and 255.0 ± 2 °C and 254.8 ± 2 °C and the “Molar enthalpy of transition or fusion” value [2] was 52.1 kJ/mol and 53.6 kJ/mol and 55.2 kJ/mol.
